# Test results as given in US6623933B1 (priority 1999, dated 2003).
# Like-named read-outs stand apart in the source and are kept apart here.
# Columns and labels:
# [1] = molecular target: NR1010/NR2A (Rattus norvegicus, UniProt P35439+Q00959); design: agonist nHill / agonist Emax: dose or concentration left out as unconfirmed; details: NR1010/NR2A
# [2] = molecular target: NR1/NR2C (NR1100) (Rattus norvegicus, UniProt P35439+Q00961); details: NR1/NR2C
# Source text: (§1) Plasmids containing the NR1100 (NR1G) and NR2A cDNA inserts were kindly provided by Dr. Nakanishi (Kyoto University Faculty of Medicine, Kyoto, Japan). Plasmids containing the NR2B, NR2C and NR2D cDNA inserts were kindly provided by Dr. P. Seeburg (Heidelberg University, Heidelberg, Germany). Plasmids were linearized with appropriate restriction enzyme prior to in vitro transcription using the Message Machine kit (Ambion, Inc., Austin, Tex.).
# (§2) Female, oocyte-positive Xenopus laevis frogs were purchased from Xenopus I (Dexter, Mich.). […] Oocytes were injected with 50 nL of RNA solutions using an electronic microinjector (Drummond Inc., Broomall, Pa.). […] The injected oocytes were used for experiments following 1-5 days of incubation in Barth's solution at 18-20° C.
# (§3) The microelectrodes were fabricated from borosilicate glass capillaries with a programmed puller (Sutter Instrument Co., Calif.). Microelectrode resistance was 1-3 MΩ_when filled with 3 M KCl.
# (§4) Except where otherwise stated, oocytes were clamped at a holding potential of −70 mV during data acquisition. The membrane current was filtered at 500 Hz and sampled at 100 Hz. Drugs were applied using a gravity-driven external perfusion system. The working volume of the recording chamber was 30 μl and the rate of the perfusion was 50 μl/sec. The drug application lasted 10 sec and was followed by 60 s wash. Data acquisition and external perfusion were controlled using custom-written software implemented in the SuperScope II development environment (GW Instruments, Mass.). All experiments were performed at room temperature of 22-24° C. Peak or steady-state current measurements were normalized and expressed as a fraction of the peak or steady-state control current measurements, which were performed before and after application of every single concentration of agonists or steroids.
# (§5) Concentration-response data were analyzed by nonlinear regress ion using the logistic equation Response=Emax/(1+(EC50/c)^nH), where c is concentration, Emaxis the maximum response, nHis the Hill coefficient. The data are presented as mean±SEM. EC50values are averaged as logarithms (De Lean et al., Am. J. Physiol. 235: E97-E102 (1978))±the SEM of the log EC50. […] The pooled data were simultaneously fitted to the logistic equation, either with Emax and EC50 constrained to be identical in the presence and absence of PS, or allowing one or both to vary independently. […] This was regarded as indicating a significant treatment effect of PS, but the change in EC50and Emaxwas not considered significant. […] No attempt was made to test the generally small changes in nHfor statistical significance.
# [3] = molecular target: NR1/NR2D (NR1100) (Rattus norvegicus, UniProt P35439+Q62645)
# Source text: as §1, §2, §3, §4, §5
# [4] = molecular target: Penta-Mutant/NR2A (Rattus norvegicus, UniProt P35439+Q00959, K193A/K202A/R187A/R233A/R252A); assay: NMDA-induced currents, Xenopus oocytes, Example 5; details: read-out: NMDA EC50; Penta-mutant/NR2A
# Method: Plasmids were linearized with appropriate restriction enzyme prior to in vitro transcription using the Message Machine kit (Ambion, Inc., Austin, Tex.).
# Female, oocyte positive Xenopus laevis frogs were purchased from Xenopus I (Dexter, Mich). […] Oocytes were injected with 50 nL of RNA solutions using an electronic microinjector (Drummond Inc., Broomall, Pa.). […] The injected oocytes were used for experiments following 1-5 days of incubation in Barth's solution at 18-20° C.
# The microelectrodes were fabricated with a programmed puller (Sutter Instrument Co., Calif.) from borosilicate glass capillaries and were filled with 3 M KCl solution. The resistance of filled microelectrodes was in the range of 1-3 MΩ. […] If not mentioned otherwise, during data acquisition oocytes were clamped at a holding potential of −70 mV. The membrane current was filtered at 500 Hz and sampled at 100 Hz. Drugs were applied using a gravity driven external perfusion system. The working ,volume of the recording chamber was 30 μl and the rate of the perfusion was 50 μl/sec. The drug application lasted 10 sec and was followed by a 60 sec wash. The data acquisition and external perfusion control were done using the SuperScopeII software package (GW Instruments, Mass.). All experiments were performed at room temperature (22-24° C.). Peak or steady-state current measurements were normalized and expressed as a fraction of the peak or steady-state control current measurements, which were performed before and after application of every single consentration of agonist or steroid. […] The data are presented as mean±S.E.M. with number of experiments in parentheses.
# [5] = molecular target: NR1001/NR2A (Rattus norvegicus, UniProt P35439+Q00959); design: agonist Emax: dose or concentration left out as unconfirmed; details: NR1001/NR2A
# [6] = molecular target: NR1111/NR2A (Rattus norvegicus, UniProt P35439+Q00959); assay: NMDA-induced currents of NR1 splice variants, Xenopus oocytes, Example 4; assay type: cell-based; design: expressed in transfected cells; host or cells: Xenopus oocytes injected with NR1111 and NR2A mRNA; details: NR1111/2A; for EC50: read-out: NMDA EC50
# Method: Overnight cultures (500 ml) of transformed bacterial cells were prepared in order to grow sufficient quantities for maxiprep isolation of the plasmid CDNA. Maxipreps were done using a Sorvall RC-5B ultracentrifuge, Qiagen columns and cDNA was quantitated with spectrophotometry (OD260 and OD260/ OD280 ratio). The resulting plasmid cDNA was linearized by digestion with an appropriate restriction enzyme that cleaves distal to the cDNA insert (XhoI for NR2A or NotI for NR1100, NR1000, NR1111, NR1011, NR1101, NR1001). […] The samples were stored at −20° C. until use.
# In vitro transcription was performed using the Ambion mMessage mMachine kit with T7 (NR1100, NR1000, NR1111, NR1011, NR1101, NR1001) RNA polymerase. The reaction was assembled on ice and allowed to incubate at 37° C. for 1-2 hr. The resulting mRNA was precipitated (reaction termination) using lithium chloride/5 mM EDTA solution and dissolved in RNase-free H2O. The concentration (OD260) and OD260/OD280 ratio (should be more than 1.5) was determined by spectrophotometer. The yield of mRNA was generally 15-30 μg. mRNA was stored at −80° C. until use.
# Intracellular recording microelectrodes were fabricated from 100 μl borosilicate glass disposable micropipettes using a 2-step protocol on a standard horizontal Flaming-Brown micropipette puller.
# [7] = molecular target: NR1/NR2A (NR1100) (Rattus norvegicus, UniProt P35439+Q00959)
# Source text: as §1, §2, §3, §4, §5
# [8] = molecular target: NR1101/NR2A (Rattus norvegicus, UniProt P35439+Q00959); design: agonist Emax: dose or concentration left out as unconfirmed; details: NR1101/NR2A
# [9] = molecular target: T1, NR1100+NR2A NMDA receptor (Rattus norvegicus, UniProt P35439+Q00959); assay: NMDA-induced currents, Xenopus oocytes, Example 1; assay type: cell-based; details: NR1100+NR2A; for EC50: read-out: NMDA EC50
# T1 construct: expressed in transfected cells; host or cells: Xenopus oocytes co-injected with NR1100 and NR2A cRNA
# [10] = read-out: agonist EC50, +100 μM PS
# Chain of NR1/NR2A (NR1100) (Q00959 23-1464, other chains not shown): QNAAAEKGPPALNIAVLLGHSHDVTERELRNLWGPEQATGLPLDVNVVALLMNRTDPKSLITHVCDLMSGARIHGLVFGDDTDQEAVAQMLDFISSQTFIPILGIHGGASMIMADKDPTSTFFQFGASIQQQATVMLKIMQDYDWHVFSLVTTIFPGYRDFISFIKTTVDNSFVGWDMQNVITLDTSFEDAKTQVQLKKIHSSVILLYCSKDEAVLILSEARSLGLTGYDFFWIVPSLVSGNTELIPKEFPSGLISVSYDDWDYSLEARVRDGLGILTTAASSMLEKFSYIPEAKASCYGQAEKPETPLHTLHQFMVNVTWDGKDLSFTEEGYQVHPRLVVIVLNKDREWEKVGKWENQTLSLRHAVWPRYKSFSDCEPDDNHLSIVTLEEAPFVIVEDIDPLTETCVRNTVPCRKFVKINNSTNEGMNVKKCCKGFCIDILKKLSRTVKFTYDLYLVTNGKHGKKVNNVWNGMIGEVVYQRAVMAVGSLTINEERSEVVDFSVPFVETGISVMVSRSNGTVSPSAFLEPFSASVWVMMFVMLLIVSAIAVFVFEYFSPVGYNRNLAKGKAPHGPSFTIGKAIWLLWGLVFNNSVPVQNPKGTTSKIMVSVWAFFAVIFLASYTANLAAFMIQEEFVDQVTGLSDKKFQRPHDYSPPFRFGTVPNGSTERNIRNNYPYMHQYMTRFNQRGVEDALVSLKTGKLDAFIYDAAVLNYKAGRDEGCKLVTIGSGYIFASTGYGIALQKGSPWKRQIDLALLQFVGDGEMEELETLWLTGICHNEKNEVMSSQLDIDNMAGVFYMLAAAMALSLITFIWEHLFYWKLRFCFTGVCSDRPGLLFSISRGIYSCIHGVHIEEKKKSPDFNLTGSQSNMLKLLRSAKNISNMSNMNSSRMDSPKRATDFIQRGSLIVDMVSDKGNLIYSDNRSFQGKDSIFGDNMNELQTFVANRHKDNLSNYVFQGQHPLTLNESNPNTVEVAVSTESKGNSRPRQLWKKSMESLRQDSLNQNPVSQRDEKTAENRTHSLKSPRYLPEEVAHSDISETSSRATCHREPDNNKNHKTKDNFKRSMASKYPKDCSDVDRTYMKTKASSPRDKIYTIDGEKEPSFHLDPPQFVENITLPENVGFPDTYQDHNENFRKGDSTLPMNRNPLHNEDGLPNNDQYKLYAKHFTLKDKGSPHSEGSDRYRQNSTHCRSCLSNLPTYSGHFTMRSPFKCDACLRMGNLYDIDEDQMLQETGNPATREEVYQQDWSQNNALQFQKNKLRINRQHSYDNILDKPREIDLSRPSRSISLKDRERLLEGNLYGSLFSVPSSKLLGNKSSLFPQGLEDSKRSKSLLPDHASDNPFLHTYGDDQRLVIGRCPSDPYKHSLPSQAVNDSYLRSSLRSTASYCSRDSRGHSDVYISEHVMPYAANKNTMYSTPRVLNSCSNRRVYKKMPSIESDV
# Chain of NR1111/NR2A (Q00959 23-1464, other chains not shown): as above
# Chain of NR1001/NR2A (Q00959 23-1464, other chains not shown): as above
compound,measurement,setting,value
"CN[C@H](CC(=O)O)C(=O)O [NMDA, N-methyl-D-aspartate]",agonist Emax,[1]; absence of PS,1.18 ± 0.03
same,agonist nHill,[1]; absence of PS,1.19 ± 0.06
same,agonist Emax,[1]; presence of PS,(1.53 ± 0.08)
same,agonist nHill,[1]; presence of PS,1.13 ± 0.09
same,agonist Emax,[2]; +100 μM PS,0.69
same,agonist nH,[2]; +100 μM PS,1.33 ± 0.03
same,agonist Emax,[2]; no PS,1.05 ± 0.01
same,agonist nH,[2]; no PS,1.18 ± 0.02
same,EC50,[2]; [10],15 µM
same,agonist Emax,[3]; +100 μM PS,0.71
same,agonist nH,[3]; +100 μM PS,1.17 ± 0.01
same,agonist Emax,[3]; no PS,1.02 ± 0.01
same,agonist nH,[3]; no PS,1.26 ± 0.09
same,EC50,"[3]; read-out: agonist EC50, +100 μM PS, unit cell empty",6.2 µM
same,EC50,"[3]; read-out: agonist EC50, no PS",8 µM
same,EC50,[4],55 ± 3.4 µM
same,agonist Emax,[5]; absence of PS,1.27 ± 0.04
same,agonist nHill,[5]; absence of PS,1.46 ± 0.07
same,agonist nHill,[5]; presence of 100 mM PS,1.21 ± 0.15
same,agonist Emax,[5]; presence of PS,(2.15 ± 0.17)
same,NMDA nH,"[6]; pH 7.5, +100 μM 3α5βS",1.50
same,NMDA nH,"[6]; pH 7.5, +100 μM PS",2.02
same,NMDA nH,"[6]; pH 7.5, control",1.67
same,NMDA nH,"[6]; pH 8.5, +100 μM PS",1.82
same,NMDA nH,"[6]; pH 8.5, control",1.93
same,EC50,"[6]; pH 7.5, +100 μM 3α5βS",158 µM
same,EC50,"[6]; pH 7.5, +100 μM PS",89 µM
same,EC50,"[6]; pH 7.5, control, 10 μM glycine",103 µM
same,EC50,"[6]; pH 8.5, +100 μM PS",94 µM
same,EC50,"[6]; pH 8.5, control",110 µM
same,agonist Emax,[7]; +100 μM PS,1.60
same,agonist nH,[7]; +100 μM PS,1.20 ± 0.06
same,agonist nH,[7]; no PS,1.13 ± 0.04
same,agonist Emax,"[7]; no PS, normalized to 200 μM NMDA plus 10 μM glycine",1.36 ± 0.04
same,EC50,[7]; [10],39 µM
same,EC50,"[7]; read-out: agonist EC50, no PS",73 µM
same,agonist Emax,[8]; absence of PS,1.33 ± 0.07
same,agonist nHill,[8]; absence of PS,1.31 ± 0.05
same,agonist nHill,[8]; presence of 100 mM PS,1.15 ± 0.12
same,agonist Emax,[8]; presence of PS,(1.78 ± 0.06)
same,NMDA Emax (normalized to 100 μM NMDA response),[9]; +100 μM 3α5βS,0.35
same,NMDA nH,[9]; +100 μM 3α5βS,1.66
same,NMDA Emax (normalized to 100 μM NMDA response),[9]; +100 μM PS,3.21
same,NMDA nH,[9]; +100 μM PS,1.54
same,NMDA Emax (normalized to 100 μM NMDA response),[9]; control,1.14
same,NMDA nH,[9]; control,1.43
same,EC50,[9]; +100 μM 3α5βS,15 µM
same,EC50,[9]; +100 μM PS,30 µM
